# Measurements taken from patent publication US4728650A, “3,4-dihydrobenzopyran derivatives and medicinal uses thereof” (Kuraray Co., Ltd., priority 1985, dated 1988).
# Counter-ions that a name gives are not always drawn.
# How the values were obtained:
# [1] = Expectorant action: tracheal secretion of fluorescein sodium in rats; type: in vivo, Wistar rats (male); settings: 50 mg/kg oral
# Procedure: Male Wistar rats (body weights, 280-320 g) were used in groups of 7 animals. Each test compound was orally administered in dose of 50 mg/kg body weight to rats. Immediately after administration, 0.3 ml/100 g (body weight of rat) of a 1% aqueous solution of fluorescein sodium was injected into the caudal vein. One hour after administration of the test compound, pentobarbital sodium 100 mg/kg (body weight of rat) was injected intraperitoneally so that deep anesthesia might cause the rat to die. Then, the trachea was exposed and an incision was made in the trachea. A sonde was inserted thereinto and ligation was made. To the sonde was connected a syringe containing 10 ml of a 5% solution of sodium hydrogen carbonate kept at 37° C. and 4 ml of the solution of sodium hydrogen carbonate was injected into the lung. After 5 minutes, the fluid in the lung was removed. After this procedure of injection and removal was repeated three times, the fluid removed from the lung was filtered and the filtrate was made up with water to make 20 ml. The intensity of fluroescence was determined at the excitation wave length of 491 nm and the fluorescence wave length of 510 nm using a spectrophotometer (HITACHI model 650-10, Hitachi, Ltd.). The amount of fluorescein sodium secreted into the trachea was estimated from the intensity of fluorescence. Each test compound was administered as suspended in a gum arabic solution in concentration of 5%.
# [2] = Antitussive action: coughing induced by tracheal stimulation in guinea pigs; type: in vivo; settings: Cavia porcellus, ip; Table 17; intraperitoneal; up and down method
# Procedure: Pentobarbital sodium 15 mg/kg was injected intraperitoneally to guinea pigs (body weight, 400 g or more) and under slight anesthesia, each guinea pig was immobilized in dorsal position. The skin in the anterior cervical region was incised along the midline and the trachea was exposed so as not to injure the subcutaneous tissue. A small hole was drilled in the anterior aspect of the trachea at a location 1.5 cm distant from the clavicle and through this hole a stimulating hair was inserted over a distance of 3 cm at an angle of 30° from the longitudinal axis of the trachea and, after one second, was pulled out. The stimulation was given 5 and 20 minutes after drilling of the small hole, and after occurrence of coughing was confirmed, each test compound was injected intraperitoneally. At 5 time points, i.e. 15, 30, 60, 90 and 120 minutes after injection, it was checked whether stimulation caused coughing in the same manner as described above. If coughing was not induced, even only once on the five occasions of stimulation, the test compound was regarded as effective, and if cough appeared on all the 5 occasions of stimulation,the test compound was regarded as ineffective. The ED50 value (mg/kg) was determined by the up and down method using 10 guinea pigs [See K. A. Brownlee et al., J. Am. Stat. Assoc. 48, 262 (1953)]. As a stimulating hair, one porcine bristle, about 5 cm long, was used.
# After completion of the study, the skin and wound opening of each guinea pig were fully disinfected with acrinol solution and the skin was sutured. Then, the guniea pigs were maintained as usual. The guinea pigs were not vigorous on the day following the test, with body weights decreased, but recovered after one week. After the lapse of 10 days or more, the animals were resubmitted to the test.
# [3] = Stress ulcer (water immersion stress) in mice; type: in vivo, mice (ddK strain, male); settings: Table 1, 25 mg/kg p.o.
# Procedure: Male mice of ddK strain (body weights, 18-20 g) were placed in a stress cage in groups of 6 animals and immersed down to the level of the xiphoid process in a water bath at 22±1° C. to give a stress. Five hours later the mice were raised from the water bath and the stomach was removed under ether anesthesia. Into the stomach was infused 1.2 ml of a 10% aqueous solution of formaldehyde and, then, the stomach was immersed in a 10% aqueous solution of formaldehyde for 10 minutes for fixation of the tissue. After fixation, an incision was made along the greater curvature for observing ulcers which had appeared in the glandular portion of the stomach. The degree of ulceration was classified according to the following ulcer index scale and the % inhibition of ulcer was estimated.
# 2: Hemorrhage and erosion
# 3: Severe hemorrhage and erosion
# Each test compound was orally administered, as suspended in a gum arabic solution in concentration of 5%, to mice 10 minutes before stress loading.
# [4] = Pyloric ligation-induced ulcer (Shay ulcer) in rats; type: in vivo, Wistar rats (male); settings: Table 2, 50 mg/kg i.d.
# Procedure: Male Wistar rats (body weights, 180-200 g) were used in groups of 7 animals. After 48-hour fasting, laparotomy was performed under ether anesthesia and the pylorus was ligated with a suture. After 13 hours, the stomach was isolated under ether anesthesia and gastric juice was collected. The gastric juice was centrifuged at 3,000 r.p.m. for 10 minutes and the volume and pH value of gastric juice were determined. The pH value was determined by using pH paper. After collection of gastric juice, a 10% aqueous solution of formaldehyde was infused into the stomach until the stomach was inflated. Then, the stomach was immersed in a 10% aqueous solution of formaldehyde for 10 minutes for fixation of the tissue. After fixation, an incision was made along the greater curvature for observing ulcers which had developed in the glandular portion of the stomach. The degree of ulcer was classified according to the following ulcer index scale.
# 2: 1-5 small ulcers (<3 mm in diameter)
# 3: Six or more small ulcers or one large ulcer (>3 mm in diameter)
# 4: Two or more large ulcers
# Each test compound was administered, as suspended in a gum arabic solution in concentration of 5%, into the duodenum immediately after pyloric ligation.
# [5] = Indomethacin-induced ulcer in rats; type: in vivo, Wistar rats (male); settings: Table 3, 50 mg/kg p.o.
# Procedure: (§1) Male Wistar rats (body weights, 170-210 g) were used in groups of 6 to 8 animals. Indomethacin, 20 mg/kg body weight, was injected subcutaneously to rats which had been deprived of food for 24 hours. After 7 hours, the stomach was excised under ether anesthesia. A 10% aqueous solution of formaldehyde was infused into the stomach until the stomach was inflated and, then, the stomach was immersed in a 10% aqueous solution of formaldehyde for 10 minutes for fixation of the tissue. After fixation, an incision was made along the greater curvature and the length of ulcers occurring in the glandular portion of the stomach was measured. The total length of ulcers occurring in a rat was taken as an ulcer index. Each test compound was orally administered, as suspended in a gum arabic solution in concentration of 5%, to rats 10 minutes before subcutaneous injection of indomethacin. The doses of test compounds and the ulcer indices for treated and untreated rats are shown in Table 3 for purposes of comparison. The % inhibition of ulcer by each test compound as estimated from the ulcer index is also presented in the same table.
# [6] = Hydrochloric acid-ethanol-induced ulcer in rats; type: in vivo, Wistar rats (male)
# Procedure: as §1, with “Male Wistar rats (body weights, 160-190 g) were used in groups” for “The doses”, “6 to 8 animals. One milliliter of a 60% aqueous solution of ethanol containing 150 mM hydrochloric acid was administered orally to rats which had been deprived of food for 24 hours. After one hour,” for “test compounds and”, “stomach was excised under ether anesthesia. In a manner similar to that described in study” for “ulcer indices”, “indomethacin-induced ulcer,” for “treated and untreated rats are shown in Table 3 for purposes of comparison. The % inhibition of ulcer by each test compound as estimated from”, “was determined. Each test compound was orally administered, as suspended” for “is also presented”, “a gum arabic solution in concentration of 5%, to rats 1 hour before administration of hydrochloric acid-ethanol.” for “the same table.”
# [7] = Acute toxicity in mice, oral; parameters: species or system ddK strain); settings: mouse, in vivo, male ddK mice, 10 animals per group
# Procedure: The 3,4-dihydrobenzopyran compound [I] has been confirmed to be low in toxicity. […] The corresponding values of Compounds (2) to (11) were respectively more than 2,000 mg/kg, and those of compounds (12) to (36) were all more than 3,500 mg/kg.
structure (smiles),measurement,setting,value
"COc1ccc(C(=O)N2CCN(CCC3(C)CCc4c(C)c(OC)c(C)c(C)c4O3)CC2)cc1 (stereo not drawn) [Compound (19), 1-[2-(3,4-Dihydro-6-methoxy-2,5,7,8-tetramethyl-2H-benzopyran-2-yl)ethyl]-4-(4-methoxybenzoyl)piperazine]",Secretory amount (mean ± S.E.),"[1]; Table 13, control 5.30 ± 0.40",8.12 ± 0.58 μg/100 g (body weight of rat)/
same,ED50,[2],50.1 mg/kg
"COc1c(C)c(C)c2c(c1C)CCC(C)(CC(=O)NC(=N)N)O2 (stereo not drawn) [Compound (1), N-(3,4-Dihydro-6-methoxy-2,5,7,8-tetramethyl-2H-benzopyran-2-yl)acetylguanidine]",% Inhibition of ulcer,[3],61.98%
same,Ulcer index (mean ± S.E.),[3]; control 2.63 ± 0.18,1.00 ± 0.63 mm
same,pH value of gastric juice,[4]; control 1.77 ± 0.54,2.07 ± 0.94
same,Volume of gastric juice,[4]; control 5.09 ± 0.40,3.36 ± 0.90 ml/100 g body weight
same,Ulcer index (mean ± S.E.),"[4]; scale 0-5, control 3.86 ± 0.40",2.33 ± 0.42
same,% Inhibition of ulcer,[5],77.80%
same,Ulcer index (mean ± S.E.),[5]; control 10.36 ± 2.07,2.30 ± 0.58 mm
same,inhibition in vivo at 25 mg/kg,"[6]; Rattus norvegicus, po, 1 h, Table 7, 25 mg/kg p.o.",91.1%
same,Ulcer index (mean ± S.E.),"[6]; Table 4, 50 mg/kg p.o., control 7.36 ± 1.23",0.39 ± 0.19 mm
same,LD50,[7],3560 mg/kg
"COc1cc(C(=O)N2CCN(CCC3(C)CCc4c(C)c(OC)c(C)c(C)c4O3)CC2)cc(OC)c1OC (stereo not drawn) [Compound (17), 3,4-Dihydro-6-methoxy-2-[2-[4-(3,4,5-trimethoxybenzoyl)piperazin-1-yl]ethyl]-2,5,7,8-tetramethyl-2H-benzopyran]",inhibition in vivo at 50 mg/kg,"[6]; Rattus norvegicus, po, 1 h, Table 9, 50 mg/kg p.o.",65.7%
same,Ulcer index (mean ± S.E.),"[6]; Table 9, 50 mg/kg p.o., control 7.22 ± 0.36",2.48 ± 0.68 mm
same,Secretory amount (mean ± S.E.),"[1]; Table 13, control 5.30 ± 0.40",7.90 ± 0.72 μg/100 g (body weight of rat)/
same,Secretory amount (mean ± S.E.),"[1]; Table 15, control 5.20 ± 0.78",9.44 ± 1.14 μg/100 g (body weight of rat)/
same,ED50,[2],113 mg/kg
"CCOC(CN1CCN(CC(C)C(=O)c2ccccc2)CC1)c1ccccc1 (stereo not drawn) [Eprazinone hydrochloride, 3-[4-(β-ethoxyphenethyl)-1-piperadinyl]-2-methylpropiophenone hydrochloride, reference compound]",Secretory amount (mean ± S.E.),"[1]; Table 13, control 5.30 ± 0.40",5.26 ± 0.40 μg/100 g (body weight of rat)/
same,Secretory amount (mean ± S.E.),"[1]; Table 14, control 1.60 ± 0.18",2.67 ± 0.18 μg/100 g (body weight of rat)/
same,Secretory amount (mean ± S.E.),"[1]; Table 16, control 6.455 ± 0.766",5.736 ± 0.369 μg/100 g (body weight of rat)/
same,ED50,[2],122 mg/kg
